Source: US20220324835A1 (Nurix Therapeutics, Inc., priority 2018, published 2022)

Experiments:
[1] = biological target: T1, Cbl-b (Homo sapiens, UniProt Q13191); assay: Cbl-b inhibition assay (Cbl-b activity assay, FRET, Biological Example 1; 100 mM NaCl, 60 nM Src kinase); assay type: biochemical; conditions: upper bound stated in text lists; read-out: IC50 values in the Cbl-b inhibition assay of Biological Example 1
How it was run: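 Binding-based Cbl-b activity assay. Src-phosphorylated, N-terminally biotin-Avi-tagged Cbl-b recruits labelled UbcH5B-Ub, and proximity to streptavidin-terbium yields FRET.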

[2] = system: T-cell; assay: IL-2 secretion from T-cells co-stimulated with anti-CD3 and anti-CD28 antibody (Biological Example 2); assay type: cell-based, human; conditions: Homo sapiens, T-cell, primary human total T-cells, baseline = anti-CD3/anti-CD28 stimulated cells without inhibitor, read-out: IL-2 secretion, Anti-CD3/Anti-CD28 stimulation, fold change over baseline; for fold induction at 0.3 µM: 0.3 μM compound; for fold induction at 1 µM: 1 μM compound; for fold induction at 4 µM: 4 μM compound
How it was run: (§1)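 T-cells were stimulated with anti-CD3 antibody alone or with anti-CD28 antibody, in the presence or absence of Cbl-b inhibitor. IL-2 secretion or CD25 surface staining was measured, and values expressed as fold over the uninhibited baseline […].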

[3] = system: T-cell; assay: CD25 cell surface staining on T-cells co-stimulated with anti-CD3 and anti-CD28 antibody (Biological Example 2); assay type: cell-based, human; conditions: Homo sapiens, T-cell, primary human total T-cells, baseline = anti-CD3/anti-CD28 stimulated cells without inhibitor, read-out: CD25 staining, Anti-CD3/Anti-CD28 stimulation, fold change over baseline; for fold induction at 0.3 µM: 0.3 μM compound; for fold induction at 1 µM: 1 μM compound; for fold induction at 4 µM: 4 μM compound
How it was run: as §1

[4] = biological target: T1, Cbl-b; assay: Cbl-b activity assay (Cbl-b inhibition assay), TR-FRET of Cbl-b interaction with UbcH5B-Ub; assay type: biochemical; conditions: assay buffer with 100 mM NaCl, 60 nM Src kinase; read-out: Cbl-b activity IC50
How it was run: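 UbcH5B (C85K) conjugated to N-terminally Bodipy-Fluorescein-labeled ubiquitin served as the fluorescent partner. After compound preincubation, Src kinase (60 nM) with 1 mM ATP and 5 mM MgCl2 (final) was added for 1.5 h, followed by a further 1 h incubation. Some values were obtained with 50 mM NaCl and 30 nM Src.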

[5] = biological target: Cbl-b (residues 36-427) (Homo sapiens, UniProt Q13191); assay: Cbl-b binding assay (SPR, Biacore T200); conditions: 20° C., 1:1 binding model
How it was run: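 Steps: capture protein on NeutrAvidin surface; inject compound dilutions (8 or 10 points from 100 or 50 μM) 50 s; allow 90-180 s dissociation; regenerate 20 s with 0.3 M NaCl. Runs at 20° C in HEPES pH 7.5/100 mM NaCl/2% DMSO; 1:1 fitting.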

[6] = system: T-cell; assay: IL-2 secretion from T-cells stimulated with anti-CD3 antibody alone (Biological Example 2); assay type: cell-based; conditions: primary human total T-cells, read-out: IL-2 secretion, Anti-CD3 stimulation, fold change over baseline; for fold induction at 1 µM: 1 μM compound; for fold induction at 8 µM: 8 μM compound
[7] = system: T-cell; assay: CD25 cell surface staining on T-cells stimulated with anti-CD3 antibody alone (Biological Example 2); assay type: cell-based; conditions: primary human total T-cells, baseline = anti-CD3/anti-CD28 stimulated cells without inhibitor, read-out: CD25 staining, Anti-CD3 stimulation, fold change over baseline; for fold induction at 1 µM: 1 μM compound; for fold induction at 8 µM: 8 μM compound

Chain of Cbl-b (residues 36-427) (Q13191 36-427): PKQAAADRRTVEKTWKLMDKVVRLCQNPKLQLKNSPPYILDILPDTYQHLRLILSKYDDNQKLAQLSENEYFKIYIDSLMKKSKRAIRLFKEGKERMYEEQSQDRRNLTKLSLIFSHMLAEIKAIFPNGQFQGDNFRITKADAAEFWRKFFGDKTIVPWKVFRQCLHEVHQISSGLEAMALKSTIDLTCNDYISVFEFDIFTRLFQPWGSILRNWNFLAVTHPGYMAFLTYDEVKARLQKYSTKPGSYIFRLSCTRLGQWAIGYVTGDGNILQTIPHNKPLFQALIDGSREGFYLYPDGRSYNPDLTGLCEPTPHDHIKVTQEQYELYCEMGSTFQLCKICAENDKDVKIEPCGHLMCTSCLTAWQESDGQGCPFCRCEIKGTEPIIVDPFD
T1 sequence (Q13191 36-427): as above

Row | SMILES | IC50 [1] | fold induction at 0.3 µM [2] | fold induction at 1 µM [2] | fold induction at 4 µM [2] | fold induction at 0.3 µM [3] | fold induction at 1 µM [3] | fold induction at 4 µM [3] | IC50 [4] | Kd [5] | fold induction at 1 µM [6] | fold induction at 8 µM [6] | fold induction at 1 µM [7] | fold induction at 8 µM [7]
1 | C[C@H](Cc1nncn1C)c1cccc(N2Cc3c(cc(CN4CC(F)C4)cc3C(F)(F)F)C2=O)c1 [Compound 401, (R)-6-((3-fluoroazetidin-1-yl)methyl)-2-(3-(1-(4-methyl-4H-1,2,4-triazol-3-yl)propan-2-yl)phenyl)-4-(trifluoromethyl)isoindolin-1-one] | ≤ 100 nM | 2.51 to 5 | > 7.5 | > 7.5 | 1.01 to 1.3 | 1.01 to 1.3 | 1.31 to 1.5 | < 100 nM | < 100 nM | 0.151 to 0.2 | > 0.201 | > 1 | > 1
2 | Cn1cnnc1CC(C)(C)c1cccc(N2Cc3c(cc(C4CC4)cc3C(F)(F)F)C2=O)c1 [Compound 477, 6-cyclopropyl-2-(3-(2-methyl-1-(4-methyl-4H-1,2,4-triazol-3-yl)propan-2-yl)phenyl)-4-(trifluoromethyl)isoindolin-1-one] | ≤ 100 nM | 1.01 to 2.5 | 2.51 to 5 | 5 to 7.5 | 1.01 to 1.3 | 1.01 to 1.3 | 1.31 to 1.5 | < 100 nM | < 100 nM | 0.101 to 0.15 | > 0.201 | 0.801 to 1 | > 1
3 | C[C@H](Cc1nncn1C)c1cccc(N2Cc3c(cc(CO)cc3C(F)(F)F)C2=O)c1 [Compound 392, (R)-6-(hydroxymethyl)-2-(3-(1-(4-methyl-4H-1,2,4-triazol-3-yl)propan-2-yl)phenyl)-4-(trifluoromethyl)isoindolin-1-one] | ≤ 100 nM | 2.51 to 5 | 5 to 7.5 | > 7.5 | 1.01 to 1.3 | 1.01 to 1.3 | 1.31 to 1.5 | < 100 nM | < 100 nM | 0.151 to 0.2 | > 0.201 | > 1 | > 1
4 | C[C@H](Cc1n[nH]cc1C(F)(F)F)c1cccc(N2Cc3c(cc(C(=O)N4CC[C@H](O)C4)cc3C(F)(F)F)C2=O)c1 [Compound 465, 6-((S)-3-hydroxypyrrolidine-1-carbonyl)-4-(trifluoromethyl)-2-(3-((R)-1-(4-(trifluoromethyl)-1H-pyrazol-3-yl)propan-2-yl)phenyl)isoindolin-1-one] | ≤ 100 nM | 1.01 to 2.5 | 1.01 to 2.5 | 2.51 to 5 | 1.01 to 1.3 | 1.01 to 1.3 | 1.01 to 1.3 | < 100 nM | < 100 nM | 0.051 to 0.1 | 0.151 to 0.2 | 0.801 to 1 | > 1
5 | CC(O)c1cc2c(c(C(F)(F)F)c1)CN(c1cccc([C@@](C)(F)C(F)(F)c3nncn3C)c1)C2=O (stereo partly drawn) [Compound 446, 6-(1-hydroxyethyl)-2-(3-((R)-1,1,2-trifluoro-1-(4-methyl-4H-1,2,4-triazol-3-yl)propan-2-yl)phenyl)-4-(trifluoromethyl)isoindolin-1-one] | ≤ 100 nM | 1.01 to 2.5 | 1.01 to 2.5 | 5 to 7.5 | 1.01 to 1.3 | 1.01 to 1.3 | 1.01 to 1.3 | < 100 nM | 100 to 300 nM | 0.051 to 0.1 | > 0.201 | 0.801 to 1 | > 1
6 | Cn1cnnc1C(F)(F)[C@](C)(F)c1cccc(N2Cc3c(cc(CN4CC[C@@H](S(C)(=O)=O)C4)cc3C(F)(F)F)C2=O)c1 [Compound 458, 6-(((R)-3-(Methylsulfonyl)pyrrolidin-1-yl)methyl)-2-(3-((R)-1,1,2-trifluoro-1-(4-methyl-4H-1,2,4-triazol-3-yl)propan-2-yl)phenyl)-4-(trifluoromethyl)isoindolin-1-one] | ≤ 100 nM | 2.51 to 5 | 5 to 7.5 | > 7.5 | 1.01 to 1.3 | 1.01 to 1.3 | 1.31 to 1.5 | < 100 nM | < 100 nM | 0.151 to 0.2 | > 0.201 | 0.801 to 1 | > 1
7 | C[C@H](Cc1nncn1C)c1cccc(N2Cc3c(cc([C@H]4CCCNC4)cc3C(F)(F)F)C2=O)c1 [Compound 383, 2-(3-((R)-1-(4-methyl-4H-1,2,4-triazol-3-yl)propan-2-yl)phenyl)-6-((R)-piperidin-3-yl)-4-(trifluoromethyl)isoindolin-1-one] | ≤ 100 nM | 2.51 to 5 | 5 to 7.5 | > 7.5 | 1.31 to 1.5 | 1.51 to 1.75 | 1.51 to 1.75 | < 100 nM | 100 to 300 nM | > 0.201 | > 0.201 | 0.801 to 1 | > 1
8 | C[C@H](Cc1nncn1C)c1cccc(N2Cc3c(ccnc3C(F)(F)F)C2=O)c1 [Compound 371, (R)-2-(3-(1-(4-methyl-4H-1,2,4-triazol-3-yl)propan-2-yl)phenyl)-4-(trifluoromethyl)-2,3-dihydro-1H-pyrrolo[3,4-c]pyridin-1-one] | ≤ 300 nM | 1.01 to 2.5 | 2.51 to 5 | 5 to 7.5 | 1.01 to 1.3 | 1.01 to 1.3 | 1.01 to 1.3 | 100 to 300 nM | 301 to 1000 nM | 0.101 to 0.15 | > 0.201 | 0.801 to 1 | > 1
